Experimental findings from US20060205724A1, “Antagonizing nk-1 receptors inhibits consumption of substances of abuse” (The Regents of the University of California, priority 2002, published 2006) are described below.

In one assay the test system is rats. The experiment in a line: loss of righting reflex (measure of intoxication) in rats administered ethanol. The assay is classed as in vivo, rat. The settings on record: rats given 3 g/kg of ethanol; vs vehicle-treated animals. An excerpt:
FIG. 1 illustrates the effect of an NK1 receptor antagonist (LY303870) on the loss of righting reflex in rats administrated ethanol at 3 and 4 g/kg. *P<0.05 vs vehicle-treated animals. n=9-10 per group.

The next assay concerns rat. The experiment in a line: self-administration of ethanol by a rat (ethanol intake, water intake, ethanol preference). It is filed as in vivo. The source says:
The graphs show ethanol intake, water intake, and ethanol preference.
FIG. 2 illustrates the effect of administration of the NK1 receptor antagonist LY303870 on self-administration of alcohol by a rat.
Without being bound to a particular theory, it is believed that this effect may be due to failure of WIN 51,708 to cross the blood-brain barrier.

`COc1ccccc1CN(C[C@@H](Cc1c[nH]c2ccccc12)NC(=O)CN1CCC(N2CCCCC2)CC1)C(C)=O` [LY303870]: in the assay with rats, the “loss of righting reflex (time the test animals were "drunk")” value is listed as “reduced the time the test animals were “drunk””. Further, the “ethanol preference (ethanol as compared to water)” value in the assay with rat was “reduced preference for ethanol as compared to water”. Besides, in the assay with rat (2.5 mg/kg or greater), the self-administration of ethanol result is reported as “significant reduction in self-administration of ethanol”.
As to `C#C[C@]1(O)CC[C@H]2[C@@H]3CC[C@H]4Cc5nc6nc7ccccc7n6cc5C[C@]4(C)[C@H]3CC[C@@]21C` [WIN 51,708], in the assay with rat, the ethanol consumption result is given as “did not have a significant effect” and the “ethanol preference (ethanol as compared to water)” value is on record as “did not alter preference”.
